Assay results: patent US11213577B2, “Treatment of cancer using recall antigens delivered by attenuated bacteria” (ALBERT EINSTEIN COLLEGE OF MEDICINE, INC., priority 2015, dated 2022)

Key:
CD4 and CD8 T cells [1] = experiment: CD4 and CD8 T cell responses in spleens of Panc-02 mice by flow cytometry; assay type: in vivo; conditions: spleens of 3 mice pooled
CD4 and CD8 T cells [2] = experiment: CD4 and CD8 T cell responses in spleen of KPC mice by flow cytometry; assay type: in vivo
MDSC (CD11b+Gr1+) = experiment: Analysis of MDSC (CD11b+Gr1+) in blood of Panc-02 mice by flow cytometry; assay type: in vivo
Procedure: (§1) FIG. 7A-7B. […] C57B16 mice were challenged with Panc-02 tumor cells and treated with Listeria-TT+GEM as described in FIG. 7A. Two days after the last treatment the percentage of MDSC (CD11b+Gr1+) was determined in blood by flow cytometry. N=5 mice per group. Representative of two experiments. […] C57B16 mice were challenged with Panc-02 tumor cells and treated with Listeria-TT+GEM as described in FIG. 7A. Two days after the last treatment the percentage of TAM (CD11b+F4/80+) was determined in the primary tumors by flow cytometry. N=5 mice per group. Representative of two experiments. The error bars represent SEM.
(§2) Panc-02 mice with advanced pancreatic cancer were treated with one high and multiple low doses of Listeria-TT (LM-TT) and GEM as described in FIG. 7A. MDSC and TAM were analyzed in the metastases by flow cytometry. Metastases of 3 mice were pooled. This experiment was performed once.

TAM (CD11b+F4/80+) = experiment: Analysis of TAM (CD11b+F4/80+) in metastases of Panc-02 mice by flow cytometry; assay type: in vivo
Procedure: as §1, §2

CD8 T cells = experiment: CD8 T cell responses to immunodominant TT epitope after immunization; assay type: in vivo, BALB/cByJ mice; conditions: three immunizations with TT856-1313 protein and CpG, blood, restimulated with […]
[3] = TAM in metastases, 3 mice pooled

## Nc1ccn([C@@H]2O[C@H](CO)[C@@H](O)C2(F)F)c(=O)n1 [GEM, gemcitabine]
CD4 and CD8 T cells [1]
  CD3CD4CD69: 14.2 Percentage
  CD3CD4Granzyme B: 4.8 Percentage
  CD3CD4IFNγ: 2.7 Percentage
  CD3CD4Perforin: 14.9 Percentage
  CD3CD8CD69: 15.5 Percentage
  CD3CD8Granzyme B: 1.1 Percentage
  CD3CD8IFNγ: 0.4 Percentage
  CD3CD8Perforin: 4.8 Percentage
CD4 and CD8 T cells [2]
  CD3CD4CD69: 10.01 Percentage
  CD3CD4Granzyme B: 3.5 Percentage
  CD3CD4IFNγ: 0.0 Percentage
  CD3CD4Perforin: 7.90 Percentage
  CD3CD8CD69: 17.5 Percentage
  CD3CD8Granzyme B: 9.71 Percentage
  CD3CD8IFNγ: 1.7 Percentage
  CD3CD8Perforin: 15.60 Percentage
MDSC (CD11b+Gr1+); MDSC in blood
  CD80, Percentage of MDSC (CD11b+Gr1+) in Blood: 1.78 Percentage
  IL-6, Percentage of MDSC (CD11b+Gr1+) in Blood: 3.59 Percentage
  IL-10, Percentage of MDSC (CD11b+Gr1+) in Blood: 2.76 Percentage
  MARCO, Percentage of MDSC (CD11b+Gr1+) in Blood: 3.84 Percentage
  TNFα, Percentage of MDSC (CD11b+Gr1+) in Blood: 8.49 Percentage
MDSC (CD11b+Gr1+); two days after last treatment
  MDSC population in blood: reduces the MDSC population
TAM (CD11b+F4/80+); [3]
  CD80, Percentage of TAM (CD11b+F4/80+) in Metastases: 4.28 Percentage
  IL-6, Percentage of TAM (CD11b+F4/80+) in Metastases: 1.25 Percentage
  IL-10, Percentage of TAM (CD11b+F4/80+) in Metastases: 1.47 Percentage
  MARCO, Percentage of TAM (CD11b+F4/80+) in Metastases: 1.94 Percentage
  TNFα, Percentage of TAM (CD11b+F4/80+) in Metastases: 8.85 Percentage
TAM (CD11b+F4/80+); two days after last treatment
  TAM population in metastases: reduces the TAM population

B1: TT856-1313 protein: purified non-toxic C-terminal fragment of tetanus toxoid, amino acid positions 856-1313 (protein, UniProt P04958 856-1313, looked up, fragment)
chain: STPIPFSYSKNLDCWVDNEEDIDVILKKSTILNLDINNDIISDISGFNSSVITYPDAQLVPGINGKAIHLVNNESSEVIVHKAMDIEYNDMFNNFTVSFWLRVPKVSASHLEQYGTNEYSIISSMKKHSLSIGSGWSVSLKGNNLIWTLKDSAGEVRQITFRDLPDKFNAYLANKWVFITITNDRLSSANLYINGVLMGSAEITGLGAIREDNNITLKLDRCNNNNQYVSIDKFRIFCKALNPKEIEKLYTSYLSITFLRDFWGNPLRYDTEYYLIPVASSSKDVQLKNITDYMYLTNAPSYTNGKLNIYYRRLYNGLKFIIKRYTPNNEIDSFVKSGDFIKLYVSYNNNEHIVGYPKDGNAFNNLDRILRVGYNAPGIPLYKKMEAVKLRDLKTYSVQLKLYDDKNASLGLVGTHNGQIGNDPNRDILIASNWYFNHLKDKILGCDWYFVPTDEGWT
CD8 T cells
  CD8 T cell responses to immunodominant epitope: CD8 T cells were activated
